The subject of test [1] is Resistant A. baumannii. The test is described as follows: Synergy of inhibitors with imipenem against resistant A. baumannii. It is filed as cell-based. The text has this: (§1) Tables 2 and 3 show the effectiveness of inhibitory compounds of the invention in killing resistant bacterial strains with imipenem, a β-lactam antibiotic.
Test [2] deals with Resistant P. aeruginosa. The test is described as follows: Synergy of inhibitors with imipenem against resistant P. aeruginosa. In kind it is cell-based.
Description: as §1

The target of test [3] is TEM-1 β-lactamase (Escherichia coli, UniProt P62593). Nature of the test: Inhibition of representative β-lactamases: TEM-1. It is filed as biochemical. As to conditions: read-out: IC50 TEM-1 E. Coli.
For test [4], the target named is T1, AmpC β-lactamase (Pseudomonas aeruginosa, UniProt P24735). The test is described as follows: Inhibition of representative β-lactamases: AmpC P. aeruginosa in serum. In kind it is biochemical.
Test [5] concerns the target AmpC β-lactamase. Particulars: read-out: IC50 AmpC A. baumannii. From the text: Methods for testing the β-lactamase inhibitory bioactivity of compounds are well known in the art. For example, see T. Viswanantha, et al. (2008), “Assays for β-lactamase Activity and Inhibition,”, Methods in Molecular Medicine, 142: New Antibiotic Targets, Chapter 19, pp. 239-260, and references cited therein.

Test [6] deals with OXA-40 β-lactamase (Acinetobacter baumannii, UniProt Q8RLA6). In kind it is biochemical.
Test [7] addresses T1, AmpC β-lactamase. The test is described as follows: Inhibition of representative β-lactamases: AmpC P. aeruginosa. In kind it is biochemical.

T1 sequence (P24735 27-397): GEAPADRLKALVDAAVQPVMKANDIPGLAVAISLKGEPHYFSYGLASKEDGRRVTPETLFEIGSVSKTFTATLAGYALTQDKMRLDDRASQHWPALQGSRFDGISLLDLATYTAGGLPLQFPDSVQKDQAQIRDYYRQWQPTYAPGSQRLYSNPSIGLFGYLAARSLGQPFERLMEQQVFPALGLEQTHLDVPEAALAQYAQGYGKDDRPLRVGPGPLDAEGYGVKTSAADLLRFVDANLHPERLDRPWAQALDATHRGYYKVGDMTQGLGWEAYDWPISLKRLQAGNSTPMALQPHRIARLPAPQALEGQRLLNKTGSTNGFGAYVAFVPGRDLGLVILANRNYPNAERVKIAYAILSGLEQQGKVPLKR
Sequence of OXA-40 β-lactamase (Q8RLA6 22-275): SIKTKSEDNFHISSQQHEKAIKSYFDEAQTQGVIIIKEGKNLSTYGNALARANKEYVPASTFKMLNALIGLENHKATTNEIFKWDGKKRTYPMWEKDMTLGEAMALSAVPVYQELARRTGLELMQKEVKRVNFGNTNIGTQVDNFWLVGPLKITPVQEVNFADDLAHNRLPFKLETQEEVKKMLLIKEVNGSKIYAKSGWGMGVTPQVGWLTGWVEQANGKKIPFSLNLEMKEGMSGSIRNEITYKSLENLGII
Sequence of TEM-1 β-lactamase (P62593 24-286 limits assumed): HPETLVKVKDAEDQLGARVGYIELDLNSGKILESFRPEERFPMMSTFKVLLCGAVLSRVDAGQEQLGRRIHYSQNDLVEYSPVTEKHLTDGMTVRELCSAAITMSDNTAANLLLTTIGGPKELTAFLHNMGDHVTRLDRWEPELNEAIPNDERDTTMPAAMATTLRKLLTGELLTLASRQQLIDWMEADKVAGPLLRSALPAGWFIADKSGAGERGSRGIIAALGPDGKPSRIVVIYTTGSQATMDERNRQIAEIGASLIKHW

Turning to `C[C@@H](O)[C@H]1C(=O)N2C(C(=O)O)=C(SCCN=CN)C[C@H]12` [Imipenem, imipenem, reference compound], the MIC in test [1] (Acinetobacter baumannii, imipenem alone, no inhibitor) was found to be 256 µg/mL; in test [2] (Pseudomonas aeruginosa, imipenem alone, no inhibitor) it was 20 µg/mL.

Consider `C[C@]1(COC(=O)Cc2ccc(O)c(O)c2)[C@H](C(=O)O)N2C(=O)/C(=C/c3ccccn3)[C@H]2S1(=O)=O` [JDB/LN-1-255], for which the IC50 in test [3] stood at 0.03 nM; in test [4], 82 nM; in test [5] it was 4 nM; in test [6] it was 11 nM; in test [7], 6 nM. The “Inhibitor concentration with imipenem at 0.0313 MIC” value in test [1] (imipenem 8 mg/L (0.0313 MIC)) and in test [2] (imipenem 0.625 mg/L (0.0313 MIC)) was more than 100 µg/mL throughout. Moreover, the “Inhibitor concentration with imipenem at 0.0625 MIC” value in test [1] (imipenem 16 mg/L (0.0625 MIC)) and in test [2] (imipenem 1.25 mg/L (0.0625 MIC)) was 100 µg/mL each time. The “Inhibitor concentration with imipenem at 0.125 MIC” value in test [1] (imipenem 32 mg/L (0.125 MIC)) and in test [2] (imipenem 2.5 mg/L (0.125 MIC)) was 50 µg/mL in each case. Further, the “Inhibitor concentration with imipenem at 0.25 MIC” value in test [1] (imipenem 64 mg/L (0.25 MIC)) and in test [2] (imipenem 5 mg/L (0.25 MIC)) was 25 µg/mL each time. In addition, the “Inhibitor concentration with imipenem at 0.5 MIC” value in test [1] (imipenem 128 mg/L (0.5 MIC)) and in test [2] (imipenem 10 mg/L (0.5 MIC)) was 6.25 µg/mL throughout.

What is called MIC is the smallest concentration in the dilution series that meets the test's criterion for growth inhibition. As a reminder, the IC50 is the concentration that inhibits the measured activity by half.

For the origin of these results see patent US8575144B2, “Beta-lactamase inhibitory compounds” (Southern Methodist University, priority 2008, dated 2013).
